Patent US20230257315A1, “AGRICULTURE COMPOSITIONS AND AP[…] MINERAL COMPOUNDS” (Ralco Nutrition, Inc., priority 2012, published 2023)

Columns and labels:
corn [1] = conditions: 5 g elemental cobalt per acre in-furrow
Description: Various cobalt compounds were applied in-furrow to natural soil with corn seeded, then grown in greenhouse conditions. The cobalt compounds were applied at a rate of 5 g elemental cobalt per acre and compared to an untreated control. The compounds included: cobalt acetate, cobalt carbonate, cobalt gluconate and cobalt sulfate. The trial consisted of four replicates in a randomized complete block design. The plants were harvested after 53 days of growth and measured for plant health characteristics and nutrient uptake.

field corn = experiment: Cobalt lactate in-furrow with field corn, greenhouse, nutrient uptake; format: in vivo; conditions: 5 g cobalt per acre in-furrow, 53 days of growth
corn [2] = experiment: Greenhouse study of absorptivity of cobalt lactate into corn vegetative tissue with and without glyphosate; format: in vivo; conditions: foliar spray at V4-V6, day 6
Description: A greenhouse study was completed to evaluate the absorptivity of cobalt lactate into corn vegetative tissue when applied with and without glyphosate herbicide. The corn seeds were potted in natural soil and allowed to grow to the V4-V6 growth stage. At this time the plants were treated with foliar sprays of cobalt lactate, and cobalt lactate with glyphosate and ammonium sulfate (AMS). The glyphosate was commercially available and used at the recommended use rate of 1 qt per acre. The AMS was applied as described in Example 6. Six replicate vegetative portions of the plants were sampled at days 1 and 6 after the application and analyzed for cobalt content.
The initial absorption rate was slowed with the addition of glyphosate and AMS to the cobalt lactate solution.

[3] = 53 days of growth, vs untreated control

In the case of cobalt gluconate, the “increase in vegetative K concentration” value (corn [1]; [3]) was 2.3%.

With CC(=O)[O-].CC(=O)[O-].[Co+2] [cobalt acetate] the “increase in the vegetative N content” value (corn [1]; [3]) was 1.7%, the “increase in vegetative K concentration” value (corn [1]; [3]) was 9.3% and the “tissue concentration increase Fe” value (corn [1]; vegetative tissue, 53 days) was 20.9%. For the same compound, the “tissue concentration increase Mn” value (corn [1]; vegetative tissue, 53 days) was 37.5% and the “tissue concentration increase Zn” value (corn [1]; vegetative tissue, 53 days) was 9.4%.

With cobalt lactate the “increase of nitrogen within the vegetation over the untreated control” value (field corn) was 4.6%, the “increase of potassium within the vegetation over the untreated control” value (field corn) was 7.8% and the “nitrogen concentration increase within the root over the untreated control” value (field corn) was 2.2%. For the same compound, the “phosphorus concentration increase within the root over the untreated control” value (field corn) was 4.2%, the “phosphorus content within the vegetation versus untreated control” value (field corn) was “no difference” and the “potassium concentration increase within the root over the untreated control” value (field corn) was 12.2%. For the same compound, the “cobalt concentration in vegetative tissue after 6 days” value (corn [2]) was “consistent between the two treatments”.

With O=C([O-])[O-].[Co+2] [cobalt carbonate] the “increase in root mass” value (corn [1]; [3]) was 6.7% and the vegetative wet weight (corn [1]; [3]) was “slight increase”.
